Laboratory results published in patent EP0006061A1, “Medicinal compound consisting of a derivative of cyclopentyl aldehyde” (INSTITUT DE RECHERCHES CHIMIQUES ET BIOLOGIQUES APPLIQUEES …, priority 1978, dated 1979).
In brackets after ≈: the same amount, converted by molar mass. Read-outs that look alike come from different tables or passages of the source.

What was measured:
cobayes [1] = assay: histamine aerosol bronchospasm (time to apnoea); type: in vivo; settings: aerosol for 10 min before histamine aerosol, controls 108 ± 18
Experimental: Les essais pharmaceutiques qui ont été mis en oeuvre avec les produits des exemples 1 et 4, ont été résumés ci-après : • 1°/ essais avec l'exemple 1 • a/ activité bactériostatique L' α-(2-formyl-3-méthyl-cyclopentyl)-acétal- déhyde inhibe les bactéries Gram (+) et Gram (-). Les CMI (concentration minimale inhibitrice) sont les suivantes : 0,75 mg/ml sur Staphylococcus aureus Londres, 1,2 mg/ml sur Escherichia coli, et 1,5 mg/ml sur Proteus • b/ activité antispasmodique : Les DE-50 du produit de l'exemple 1 ont été déterminés • (i) in vitro sur iléon isolé de cobaye vis à vis de l'histamine : DE - 50 = 50 γ/ml; • (ii) in vivo sur l'animal vivant selon la méthode de KONZETT & ROESLLER : DE - 50 = 2,6 mg/kg par administration i.v. • c/ activité antianaphylactique : Des cobayes mâles sont sensibilisés par deux injections de 0,5 ml d'une solution d'albumine à 2 g/1, à deux jours d'intervalle. Quatre semaines aprës,le choc anaphylactique mortel est provoqué par injection i.v. de 0,2 ml d'une solution aqueuse d'ovalbumine à 2 g/1. Les produits à tester sont administrés 30 mn avant (administration i.p.) ou en même temps (administration i.v.) que l'injection provoquant ledit choc anaphylactique. Les résultats sont donnés dans le tableau I pour le produit de l'exemple 1 et la Prométhazine en tant que produit de référence : [formula] • 2°/ essais avec le produit de l'exemple 4 (constitué par un mélange de 87 % en poids d'isomère "cis-trans" et 13 % en poids d'isomère "trans-cis). • a/ activité bactériostatigue : Le produit de l'exemple 4 inhibe les bactéries Gram (+) et Gram (-). […]

[2] = test system: Streptococcus (souche 1178); assay: bacteriostatic activity (MIC); type: cell-based; settings: read-out: CMI
Experimental: (§1) Les essais pharmaceutiques qui ont été mis en oeuvre avec les produits des exemples 1 et 4, ont été résumés ci-après : • 1°/ essais avec l'exemple 1 • a/ activité bactériostatique L' α-(2-formyl-3-méthyl-cyclopentyl)-acétal- déhyde inhibe les bactéries Gram (+) et Gram (-). Les CMI (concentration minimale inhibitrice) sont les suivantes : 0,75 mg/ml sur Staphylococcus aureus Londres, 1,2 mg/ml sur Escherichia coli, et 1,5 mg/ml sur Proteus • b/ activité antispasmodique : Les DE-50 du produit de l'exemple 1 ont été déterminés • (i) in vitro sur iléon isolé de cobaye vis à vis de l'histamine : DE - 50 = 50 γ/ml; • (ii) in vivo sur l'animal vivant selon la méthode de KONZETT & ROESLLER : DE - 50 = 2,6 mg/kg par administration i.v. • c/ activité antianaphylactique : Des cobayes mâles sont sensibilisés par deux injections de 0,5 ml d'une solution d'albumine à 2 g/1, à deux jours d'intervalle. Quatre semaines aprës,le choc anaphylactique mortel est provoqué par injection i.v. de 0,2 ml d'une solution aqueuse d'ovalbumine à 2 g/1. Les produits à tester sont administrés 30 mn avant (administration i.p.) ou en même temps (administration i.v.) que l'injection provoquant ledit choc anaphylactique. Les résultats sont donnés dans le tableau I pour le produit de l'exemple 1 et la Prométhazine en tant que produit de référence : [formula] • 2°/ essais avec le produit de l'exemple 4 (constitué par un mélange de 87 % en poids d'isomère "cis-trans" et 13 % en poids d'isomère "trans-cis). • a/ activité bactériostatigue : Le produit de l'exemple 4 inhibe les bactéries Gram (+) et Gram (-). Ses CMI sont les suivantes : • 1,5 mg/m sur Staphylococcus aureus, Londres • 1 mg/ml sur Escherichia coli (souche 548) • 1,75 mg/ml sur Proteus vulgaris (souche 1557) • 2,5 mg/ml sur Klebsiella pneumoniae (souche 433), • 1 mg/ml sur Salmonella typhi murium (souche IP), • 1,5 mg/ml sur Staphylococcus aureus (souche 634), • 1,25 mg/ml sur Streptococcus (souche 1178) • 1,25 mg/ml sur Bacillus substilis, (les souches 548, 1557, 433, 634, et 1178 étant celles du catalogue de la collection du "Centre International de Distribution de Souches et d'Information sur les Types Microbiens" de . Lausanne, et la souche "IP" provenant de l'Institut Pasteur de Paris. • b/ activité bactéricide Le produit de l'exemple 4 détruit les bactéries Gram (+) et Gram (-). Ses CMB (concentration minimalebactéricide) déterminées sur milieu solide (quand moins de 0,01% de germes survivent) sont : • 1,75 mg/ml sur Staphylococcus aureus Londres • 1,5 mg/ml sur Escherichia coli (souche 548) • 2 mg/ml sur Proteus vulgaris (souche 1557) • 3 mg/ml sur Klebsiella pneumoniae (souche 433), • 1,25 mg/ml sur Salmonella typhi murium (souche I.P.) • 1,75 mg/ml sur Staphylococcus aureus (souche 634) • 2 mg/ml sur Streptococcus (souche 1178) • 2,5 mg/ml sur Bacillus substilis. • c/ activité bronchospatique Des cobayes mâles ou femelles [20 animaux (pesant 300-500 g) par dose et par produit à tester] sont exposés à un aérosol de l'exemple 4 (50 g/l en solution eau-éthanol) ou de Prométhazine (produit de référence) pendant 10 mn.

[3] = test system: Staphylococcus aureus (souche 634); assay: bacteriostatic activity (MIC); type: cell-based; settings: read-out: CMI
Experimental: as §1

[4] = test system: Klebsiella pneumoniae (souche 433); assay: bacteriostatic activity (MIC); type: cell-based; settings: read-out: CMI
Experimental: as §1

[5] = test system: Salmonella typhi murium (souche IP); assay: bacteriostatic activity (MIC); type: cell-based; settings: Salmonella enterica, read-out: CMI
Experimental: as §1

[6] = test system: Escherichia coli (souche 548); assay: bacteriostatic activity (MIC); type: cell-based; settings: read-out: CMI
Experimental: as §1

Bacillus substilis [7] = assay: bacteriostatic activity (MIC); type: cell-based; settings: read-out: CMI
Experimental: as §1

[8] = test system: Proteus vulgaris (souche 1557); assay: bacteriostatic activity (MIC); type: cell-based; settings: read-out: CMI
Experimental: as §1

duodénum isolé de rat [9] = assay: antispasmodic activity on isolated duodenum against barium chloride; type: cell-based; settings: against BaCl2 (0,3 µg/ml), read-out: DE-50 (the source's name)
Experimental: (§2) L'activité antispasmodique du produit de l'exemple 4 a été étudiée sur le duodénum isolé de rat vis à vis de l'acétvlcholine et du chlorure de baryum. Les DE-50 du produit de l'exemple 4 sont : • (i) 13 µg/ml vis à vis de l'acétycholine (0,2 µg/ml), et • (ii) 10 µg/ml vis à vis de BaCl2 (0,3 µg/ml). g/ toxicité

acute toxicity (LD50) = assay: acute toxicity (LD50); set-up: species or system souris; settings: in vivo, mouse
Experimental: Les DL-50 du poids de l'exemple 4 chez la souris sont les suivantes : • DL-50 i.p. = 18 ± 3 mg/kg • DL-50 i.v. - 20 ± 3 mg/kg • DL-50 p.o. = 282 ± 3 mg/kg • DL-50 s.c. > 1000 mg/kg • DL-50 aérosol = 22 ± 3 mg/kg

rat femelle = assay: anti-inflammatory activity, carrageenin oedema test; type: in vivo
Description: L'activité anti-inflammatoire de l'exemple 4 a été étudiée chez le rat femelle (de poids 100 g) selon le test de l'oedème à la carragéenine.Les résultats sont donnés dans le tableau IV où l'Indométacine est utilisée comme produit de référence : […]

iléon isolé de cobaye = assay: antianaphylactic activity in vitro: albumin-induced contraction of ileum from sensitised animals; type: cell-based; settings: for amplitude des contractions: 2 min contact, 200 µg albumin, controls 147 ± 32
Experimental: Des cobayes mâles sont sensibilises par une injection i.p. de 100 mg/kg d'ovalbumine dans un volume égal d'adjuvant de Freund. Quatre semaines après, les animaux sont sacrifiés, on recueille chaque iléon qui est placé à 33°C dans un bain de Thyrode. Une contraction est provoquée par addition d'une dose de 200 µg d'albumine au liquide de survie. L'amplitude des contractions des témoins est comparée à l'amplitude des contractions après mise en contact du produit de l'exemple 4 pendant 2 mn. Les résultats donnés dans le tableau III montrent que le produit de l'exemple 4 réduit l'amplitude des contractions de l'iléon isolé de cobaye , cette réduction étant statistiquement significative.

cobayes [10] = assay: antianaphylactic activity: ovalbumin aerosol in sensitised animals (time to dyspnoea); type: in vivo; settings: aerosol pretreatment, controls 94 ± 39
Description: Des cobayes (mâles ou femelles) sont sensibilisés à l'ovalbumine quatre semaines avant le début de l'expérience. Chaque animal est exposé à un aérosol d'ovalbumine (obtenu à partir d'un milieu aqueux contenant 50 g/1 d'ovalbumine). Le choc anaphylactique se manifeste par l'apparition d'une dyspnée intense. Les temps d'apparition de la dyspnée sont comparés entre lot témoin et lots préalablement traités avec un aérosol du produit de l'exemple 4 (50 g/1 dans une solution eau-éthanol). Les résultats donnés dans le tableau IV, montrent que le produit de l'exemple 4 […] le temps d'apparition des troubles respiratoires provoqués par l'aérosol d'ovalbumine .

[11] = test system: Streptococcus (souche 1178); assay: bactericidal activity (MBC) on solid medium; type: cell-based; settings: less than 0,01% of germs survive, read-out: CMB (concentration minimalebactéricide)
Experimental: as §1

[12] = test system: Staphylococcus aureus (souche 634); assay: bactericidal activity (MBC) on solid medium; type: cell-based; settings: less than 0,01% of germs survive, read-out: CMB (concentration minimalebactéricide)
Experimental: as §1

[13] = test system: Klebsiella pneumoniae (souche 433); assay: bactericidal activity (MBC) on solid medium; type: cell-based; settings: less than 0,01% of germs survive, read-out: CMB (concentration minimalebactéricide)
Experimental: as §1

[14] = test system: Escherichia coli (souche 548); assay: bactericidal activity (MBC) on solid medium; type: cell-based; settings: less than 0,01% of germs survive, read-out: CMB (concentration minimalebactéricide)
Experimental: as §1

[15] = test system: Salmonella typhi murium (souche I.P.); assay: bactericidal activity (MBC) on solid medium; type: cell-based; settings: Salmonella enterica, less than 0,01% of germs survive, read-out: CMB (concentration minimalebactéricide)
Experimental: as §1

[16] = test system: Staphylococcus aureus Londres; assay: bactericidal activity (MBC) on solid medium; type: cell-based; settings: less than 0,01% of germs survive, read-out: CMB (concentration minimalebactéricide)
Experimental: as §1

Bacillus substilis [17] = assay: bactericidal activity (MBC) on solid medium; type: cell-based; settings: less than 0,01% of germs survive, read-out: CMB (concentration minimalebactéricide)
Experimental: as §1

[18] = test system: Proteus vulgaris (souche 1557); assay: bactericidal activity (MBC) on solid medium; type: cell-based; settings: less than 0,01% of germs survive, read-out: CMB (concentration minimalebactéricide)
Experimental: as §1

duodénum isolé de rat [19] = assay: antispasmodic activity on isolated duodenum against acetylcholine; type: cell-based; settings: against acetylcholine (0,2 µg/ml), read-out: DE-50 (the source's name)
Experimental: as §2

C=C(C=O)C1CCC(C)C1C=O (stereo not drawn) [Ex. 4, α-(2-formyl-3-méthyl-cyclopentyl)-acrylaldéhyde]
Apparition de l'apnée (en secondes) (cobayes [1]; 1 mg/kg): 130 ± 23 secondes
Apparition de l'apnée (en secondes) (cobayes [1]; 10 mg/kg): 169 ± 32 secondes
MIC [2]: 1250 µg/mL (≈ 7.52 mM)
MIC [3]: 1500 µg/mL (≈ 9.02 mM)
MIC [4]: 2500 µg/mL (≈ 15 mM)
MIC [5]: 1000 µg/mL (≈ 6.02 mM)
MIC [6]: 1000 µg/mL (≈ 6.02 mM)
MIC (Bacillus substilis [7]): 1250 µg/mL (≈ 7.52 mM)
MIC [8]: 1750 µg/mL (≈ 10.5 mM)
EC50 (duodénum isolé de rat [9]): 10 µg/mL (≈ 0.0602 mM)
LD50 (acute toxicity (LD50); inhaled or intranasal, aerosol, read-out: DL-50 aérosol): 22 ± 3 mg/kg
LD50 (acute toxicity (LD50); ip, i.p., read-out: DL-50 i.p.): 18 ± 3 mg/kg
LD50 (acute toxicity (LD50); iv, i.v., read-out: DL-50 i.v.): 20 ± 3 mg/kg
LD50 (acute toxicity (LD50); po, p.o., read-out: DL-50 p.o.): 282 ± 3 mg/kg
LD50 (acute toxicity (LD50); sc, s.c., read-out: DL-50 s.c.): > 1000 mg/kg
inhibition par rapport aux témoins (rat femelle; dose 10 µg per rat): 26%
inhibition par rapport aux témoins (rat femelle; dose 50 µg per rat): 25%
inhibition par rapport aux témoins (rat femelle; dose 200 µg per rat): 41%
amplitude des contractions (iléon isolé de cobaye; 5 µg/ml): 91 ± 37
amplitude des contractions (iléon isolé de cobaye; 10 µg/ml): 52 ± 16
inhibition at 5 µg/mL (iléon isolé de cobaye; Cavia porcellus, 2 min, 5 µg/ml, read-out: variation de l'amplitude par rapport aux animaux témoins): 38%
inhibition at 10 µg/mL (iléon isolé de cobaye; Cavia porcellus, 2 min, 10 µg/ml, read-out: variation de l'amplitude par rapport aux animaux témoins): 65%
Dyspnée temps d'apparition (secondes) (cobayes [10]; 1 mg/kg): 120 ± 52 secondes
Dyspnée temps d'apparition (secondes) (cobayes [10]; 10 mg/kg): 130 ± 54 secondes
MBC [11]: 2000 µg/mL (≈ 12 mM)
MBC [12]: 1750 µg/mL (≈ 10.5 mM)
MBC [13]: 3000 µg/mL (≈ 18 mM)
MBC [14]: 1500 µg/mL (≈ 9.02 mM)
MBC [15]: 1250 µg/mL (≈ 7.52 mM)
MBC [16]: 1750 µg/mL (≈ 10.5 mM)
MBC (Bacillus substilis [17]): 2500 µg/mL (≈ 15 mM)
MBC [18]: 2000 µg/mL (≈ 12 mM)
EC50 (duodénum isolé de rat [19]): 13 µg/mL (≈ 0.0782 mM)

COc1ccc2c(c1)c(CC(=O)O)c(C)n2C(=O)c1ccc(Cl)cc1 [Indometacine, reference compound]
inhibition par rapport aux témoins (rat femelle; dose 200 µg per rat): 57%
